The results in this text go back to patent publication US8207172B2 (Bayer Intellectual Property GmbH, priority 2004, dated 2012).

For test [1], the system named is A431 cells (human epidermoid carcinoma). The experiment in a line: In vitro tumor cell proliferation assay (Cell Titer-Glo luminescent cell viability), A431. In kind it is cell-based. The settings on record: A-431, 72 h, 72 hours of drug exposure, ATP luminescence readout, read-out: IC50, anti-proliferative activity (inhibition of cell proliferation). A digest of the protocol:
(§1)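 Seeding density 2.5×10^3 cells/well; 72 h drug exposure at 37° C; endpoint CellTiter-Glo luminescence, reported as IC50.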

The subject of test [2] is BT474 (human breast carcinoma). The experiment in a line: In vitro tumor cell proliferation assay (Cell Titer-Glo luminescent cell viability), BT474. The class given is cell-based. Conditions: BT-474, 72 h, BT474 cells, 72 hours of drug exposure, ATP luminescence readout, read-out: IC50, anti-proliferative activity (inhibition of cell proliferation). A digest of the protocol: as §1

Structures can show the parent of a compound that is named as a salt.

With `O[C@H](Cn1ccnc1)Cn1cc2c(n1)CCc1c-2sc2ncnc(Nc3ccc(OCc4cccc(F)c4)c(Cl)c3)c12` [Example 141, (2R)-1-[6-({3-chloro-4-[(3-fluorobenzyl)oxy]phenyl}amino)-4,5-dihydro-2H-pyrimido[5′,4′:4,5]thieno[2,3-e]indazol-2-yl]-3-(1H-imidazol-1-yl)propan-2-ol trifluoroacetate (salt)], the results for the IC50 in test [1] and in test [2] were ≤ 50 µM and ≤ 1 µM, respectively.
The corresponding values for `O[C@H](CNCCN1CCOCC1)Cn1cc2c(n1)CCc1c-2sc2ncnc(Nc3ccc(OCc4cccc(F)c4)c(Cl)c3)c12` [Example 142, (2R)-1-[6-({3-chloro-4-[(3-fluorobenzyl)oxy]phenyl}amino)-4,5-dihydro-2H-pyrimido[5′,4′:4,5]thieno[2,3-e]indazol-2-yl]-3-[(2-morpholin-4-ylethyl)amino]propan-2-ol] are ≤ 50 µM and ≤ 1 µM.
Turning to `OCCN(CCO)C[C@@H](O)Cn1cc2c(n1)CCc1c-2sc2ncnc(Nc3ccc(OCc4cccc(F)c4)c(Cl)c3)c12` [Example 144, (2R)-1-[bis(2-hydroxyethyl)amino]-3-[6-({3-chloro-4-[(3-fluorobenzyl)oxy]phenyl}amino)-4,5-dihydro-2H-pyrimido[5′,4′:4,5]thieno[2,3-e]indazol-2-yl]propan-2-ol], the IC50 in test [1] was ≤ 50 µM; in test [2], ≤ 1 µM.
On to `COCCNC[C@@H](O)Cn1cc2c(n1)CCc1c-2sc2ncnc(Nc3ccc(OCc4cccc(F)c4)c(Cl)c3)c12` [Example 146, (2R)-1-[6-({3-chloro-4-[(3-fluorobenzyl)oxy]phenyl}amino)-4,5-dihydro-2H-pyrimido[5′,4′:4,5]thieno[2,3-e]indazol-2-yl]-3-[(2-methoxyethyl)amino]propan-2-ol], for which the IC50 in test [1] is ≤ 50 µM; in test [2], ≤ 1 µM.
As for `O[C@H](CN1CCCCC1)Cn1cc2c(n1)CCc1c-2sc2ncnc(Nc3ccc(OCc4cccc(F)c4)c(Cl)c3)c12` [Example 148, (2R)-1-[6-({3-chloro-4-[(3-fluorobenzyl)oxy]phenyl}amino)-4,5-dihydro-2H-pyrimido[5′,4′:4,5]thieno[2,3-e]indazol-2-yl]-3-piperidin-1-ylpropan-2-ol trifluoroacetate (salt)], the values for the IC50 in test [1] and in test [2] were ≤ 50 µM and ≤ 1 µM, respectively.
Consider `O[C@H](CN1CCCC1)Cn1cc2c(n1)CCc1c-2sc2ncnc(Nc3ccc(OCc4cccc(F)c4)c(Cl)c3)c12` [Example 149, (2R)-1-[6-({3-chloro-4-[(3-fluorobenzyl)oxy]phenyl}amino)-4,5-dihydro-2H-pyrimido[5′,4′:4,5]thieno[2,3-e]indazol-2-yl]-3-pyrrolidin-1-ylpropan-2-ol trifluoroacetate (salt)], for which the values for the IC50 in test [1] and in test [2] were ≤ 50 µM and ≤ 1 µM, respectively.
On to `O[C@H](CN1CC[C@H](O)C1)Cn1cc2c(n1)CCc1c-2sc2ncnc(Nc3ccc(OCc4cccc(F)c4)c(Cl)c3)c12` [Example 150, (3S)-1-{(2R)-3-[6-({3-chloro-4-[(3-fluorobenzyl)oxy]phenyl}amino)-4,5-dihydro-2H-pyrimido[5′,4′:4,5]thieno[2,3-e]indazol-2-yl]-2-hydroxypropyl}pyrrolidin-3-ol trifluoroacetate (salt)], for which the IC50 in test [1] was ≤ 50 µM; in test [2], ≤ 1 µM.
For the compound `OCCNC[C@@H](O)Cn1cc2c(n1)CCc1c-2sc2ncnc(Nc3ccc(OCc4cccc(F)c4)c(Cl)c3)c12` [Example 151, (2R)-1-[6-({3-chloro-4-[(3-fluorobenzyl)oxy]phenyl}amino)-4,5-dihydro-2H-pyrimido[5′,4′:4,5]thieno[2,3-e]indazol-2-yl]-3-[(2-hydroxyethyl)amino]propan-2-ol trifluoroacetate (salt)], the values for the IC50 in test [1] and in test [2] were ≤ 50 µM and ≤ 1 µM, respectively.
In the same order, the values of `O[C@H](CN1CCNCC1)Cn1cc2c(n1)CCc1c-2sc2ncnc(Nc3ccc(OCc4cccc(F)c4)c(Cl)c3)c12` [Example 152, (2R)-1-[6-({3-chloro-4-[(3-fluorobenzyl)oxy]phenyl}amino)-4,5-dihydro-2H-pyrimido[5′,4′:4,5]thieno[2,3-e]indazol-2-yl]-3-piperazin-1-ylpropan-2-ol trifluoroacetate (salt)] are ≤ 50 µM and ≤ 1 µM.
As for `CS(=O)(=O)CCNC[C@@H](O)Cn1cc2c(n1)CCc1c-2sc2ncnc(Nc3ccc(OCc4cccc(F)c4)c(Cl)c3)c12` [Example 154, (2R)-1-[6-({3-chloro-4-[(3-fluorobenzyl)oxy]phenyl}amino)-4,5-dihydro-2H-pyrimido[5′,4′:4,5]thieno[2,3-e]indazol-2-yl]-3-{[2-(methylsulfonyl)ethyl]amino} propan-2-ol trifluoroacetate (salt)], the figures for the IC50 in test [1] and in test [2] were ≤ 50 µM and ≤ 1 µM, respectively.
Consider `CNC[C@@H](O)Cn1cc2c(n1)CCc1c-2sc2ncnc(Nc3ccc(OCc4cccc(F)c4)c(Cl)c3)c12` [Example 155, (2R)-1-[6-({3-chloro-4-[(3-fluorobenzyl)oxy]phenyl}amino)-4,5-dihydro-2H-pyrimido[5′,4′:4,5]thieno[2,3-e]indazol-2-yl]-3-(methylamino)propan-2-ol trifluoroacetate (salt)], for which the IC50 is ≤ 50 µM in test [1] and ≤ 1 µM in test [2].
On to `CN(C)C[C@@H](O)Cn1cc2c(n1)CCc1c-2sc2ncnc(Nc3ccc(OCc4cccc(F)c4)c(Cl)c3)c12` [Example 156, (2R)-1-[6-({3-chloro-4-[(3-fluorobenzyl)oxy]phenyl}amino)-4,5-dihydro-2H-pyrimido[5′,4′:4,5]thieno[2,3-e]indazol-2-yl]-3-(dimethylamino)propan-2-ol trifluoroacetate (salt)], for which the IC50 is ≤ 50 µM in test [1] and ≤ 1 µM in test [2].
In the same order, the values of `CCNC[C@@H](O)Cn1cc2c(n1)CCc1c-2sc2ncnc(Nc3ccc(OCc4cccc(F)c4)c(Cl)c3)c12` [Example 157, (2R)-1-[6-({3-chloro-4-[(3-fluorobenzyl)oxy]phenyl}amino)-4,5-dihydro-2H-pyrimido[5′,4′:4,5]thieno[2,3-e]indazol-2-yl]-3-(ethylamino)propan-2-ol trifluoroacetate (salt)] are ≤ 50 µM and ≤ 1 µM.
The corresponding values for `CCN(CC)C[C@@H](O)Cn1cc2c(n1)CCc1c-2sc2ncnc(Nc3ccc(OCc4cccc(F)c4)c(Cl)c3)c12` [Example 158, (2R)-1-[6-({3-chloro-4-[(3-fluorobenzyl)oxy]phenyl}amino)-4,5-dihydro-2H-pyrimido[5′,4′:4,5]thieno[2,3-e]indazol-2-yl]-3-(diethylamino)propan-2-ol trifluoroacetate (salt)] are ≤ 50 µM and ≤ 5 µM.
Regarding `CC(C)NC[C@@H](O)Cn1cc2c(n1)CCc1c-2sc2ncnc(Nc3ccc(OCc4cccc(F)c4)c(Cl)c3)c12` [Example 159, (2R)-1-[6-({3-chloro-4-[(3-fluorobenzyl)oxy]phenyl}amino)-4,5-dihydro-2H-pyrimido[5′,4′:4,5]thieno[2,3-e]indazol-2-yl]-3-(isopropylamino)propan-2-ol trifluoroacetate (salt)], the IC50 in test [1] was ≤ 50 µM; in test [2] it was ≤ 5 µM.
With `NC[C@@H](O)Cn1cc2c(n1)CCc1c-2sc2ncnc(Nc3ccc(OCc4cccc(F)c4)c(Cl)c3)c12` [Example 160, (2R)-1-amino-3-[6-({3-chloro-4-[(3-fluorobenzyl)oxy]phenyl}amino)-4,5-dihydro-2H-pyrimido[5′,4′:4,5]thieno[2,3-e]indazol-2-yl]propan-2-ol trifluoroacetate (salt)], the IC50 in test [1] is ≤ 50 µM; in test [2] it was ≤ 5 µM.
In the case of `CC(C)CNC[C@@H](O)Cn1cc2c(n1)CCc1c-2sc2ncnc(Nc3ccc(OCc4cccc(F)c4)c(Cl)c3)c12` [Example 161, (2R)-1-[6-({3-chloro-4-[(3-fluorobenzyl)oxy]phenyl}amino)-4,5-dihydro-2H-pyrimido[5′,4′:4,5]thieno[2,3-e]indazol-2-yl]-3-(isobutylamino)propan-2-ol trifluoroacetate (salt)], the IC50 in test [1] is ≤ 50 µM; in test [2], ≤ 5 µM.
`NC[C@@H](O)Cn1ncc2c1CCc1c-2sc2ncnc(Nc3ccc(OCc4cccc(F)c4)c(Cl)c3)c12` [Example 162, (2R)-1-amino-3-[6-({3-chloro-4-[(3-fluorobenzyl)oxy]phenyl}amino)-4,5-dihydro-3H-pyrimido[5′,4′:4,5]thieno[2,3-e]indazol-3-yl]propan-2-ol trifluoroacetate (salt)]: the IC50 in test [1] is ≤ 50 µM; in test [2], ≤ 5 µM.
In the same order, the values of `CC(C)NC[C@@H](O)Cn1ncc2c1CCc1c-2sc2ncnc(Nc3ccc(OCc4cccc(F)c4)c(Cl)c3)c12` [Example 163, (2R)-1-[6-({3-chloro-4-[(3-fluorobenzyl)oxy]phenyl}amino)-4,5-dihydro-3H-pyrimido[5′,4′:4,5]thieno[2,3-e]indazol-3-yl]-3-(isopropylamino)propan-2-ol trifluoroacetate (salt)] are ≤ 50 µM and ≤ 5 µM.
`COCCN(CCOC)C[C@@H](O)Cn1ncc2c1CCc1c-2sc2ncnc(Nc3ccc(OCc4cccc(F)c4)c(Cl)c3)c12` [Example 164, (2R)-1-[bis(2-methoxyethyl)amino]-3-[6-({3-chloro-4-[(3-fluorobenzyl)oxy]phenyl}amino)-4,5-dihydro-3H-pyrimido[5′,4′:4,5]thieno[2,3-e]indazol-3-yl]propan-2-ol trifluoroacetate (salt)]: the IC50 is ≤ 50 µM in test [1] and ≤ 5 µM in test [2].
The corresponding values for `O[C@H](CNCCN1CCOCC1)Cn1ncc2c1CCc1c-2sc2ncnc(Nc3ccc(OCc4cccc(F)c4)c(Cl)c3)c12` [Example 165, (2R)-1-[6-({3-chloro-4-[(3-fluorobenzyl)oxy]phenyl}amino)-4,5-dihydro-3H-pyrimido[5′,4′:4,5]thieno[2,3-e]indazol-3-yl]-3-[(2-morpholin-4-ylethyl)amino]propan-2-ol] are ≤ 50 µM and ≤ 1 µM.
